Results on nine molecules are retold here after PubChem BioAssay AID1259407 (Chemical Carcinogenesis Research Information System (CCRIS), 2018).

The subject of this series is CCRIS mutagenicity, Ames/micronucleus/aberration tests. As to the kind of experiment: CCRIS mutagenicity studies.
Setting [1] is: Test System: AMES SALMONELLA TYPHIMURIUM, Strain/Indicator: TA98, Metabolic Activation: NONE, Method: PREINCUBATION
[2] abbreviates: Test System: AMES SALMONELLA TYPHIMURIUM, Strain/Indicator: TA100, Metabolic Activation: NONE, Method: PREINCUBATION
Setting [3] is: Test System: AMES SALMONELLA TYPHIMURIUM, Strain/Indicator: TA98, Metabolic Activation: NONE, Method: STANDARD PLATE.
Setting [4] is: Test System: AMES SALMONELLA TYPHIMURIUM, Strain/Indicator: TA100, Metabolic Activation: RAT, LIVER, S-9, PHENOBARBITAL AND 5,6-BENZOFLAVONE, Method: PREINCUBATION
The mark [5] stands for this setting: Test System: AMES SALMONELLA TYPHIMURIUM, Strain/Indicator: TA100, Metabolic Activation: RAT, LIVER, S-9, Method: PREINCUBATION

Activity calls are given as the source filed them. No rule for the calls is given here.

With `CCCCCc1cc(O)c2c(c1)OC(C)(C)[C@@H]1CCC(C)=C[C@@H]21`, the mutagenic call is “inactive; negative” (Test System: AMES SALMONELLA TYPHIMURIUM, Strain/Indicator: TA97, Metabolic Activation: HAMSTER, LIVER, S-9, AROCLOR 1254 (10 OR 30%), Method: PREINCUBATION); “inactive; negative” (Test System: AMES SALMONELLA TYPHIMURIUM, Strain/Indicator: TA97, Metabolic Activation: NONE, Method: PREINCUBATION); “inactive; negative” (Test System: AMES SALMONELLA TYPHIMURIUM, Strain/Indicator: TA97, Metabolic Activation: RAT, LIVER, S-9, AROCLOR 1254 (10 OR 30%), Method: PREINCUBATION); “inactive; negative” (Test System: AMES SALMONELLA TYPHIMURIUM, Strain/Indicator: TA98, Metabolic Activation: HAMSTER, LIVER, S-9, AROCLOR 1254 (10 OR 30%), Method: PREINCUBATION); “inactive; negative” under setting [1]; “inactive; negative” (Test System: AMES SALMONELLA TYPHIMURIUM, Strain/Indicator: TA98, Metabolic Activation: RAT, LIVER, S-9, AROCLOR 1254 (10 OR 30%), Method: PREINCUBATION). The mutagenic call (Test System: AMES SALMONELLA TYPHIMURIUM, Strain/Indicator: TA100, Metabolic Activation: HAMSTER, LIVER, S-9, AROCLOR 1254 (10 OR 30%), Method: PREINCUBATION) was “inactive; negative”; the mutagenic call under setting [2] is “inactive; negative”; the mutagenic call (Test System: AMES SALMONELLA TYPHIMURIUM, Strain/Indicator: TA100, Metabolic Activation: RAT, LIVER, S-9, AROCLOR 1254 (10 OR 30%), Method: PREINCUBATION) was “inactive; negative”; the mutagenic call (Test System: AMES SALMONELLA TYPHIMURIUM, Strain/Indicator: TA1535, Metabolic Activation: HAMSTER, LIVER, S-9, AROCLOR 1254 (10 OR 30%), Method: PREINCUBATION) is “inactive; negative”; the mutagenic call (Test System: AMES SALMONELLA TYPHIMURIUM, Strain/Indicator: TA1535, Metabolic Activation: NONE, Method: PREINCUBATION) was “inactive; negative”; the mutagenic call (Test System: AMES SALMONELLA TYPHIMURIUM, Strain/Indicator: TA1535, Metabolic Activation: RAT, LIVER, S-9, AROCLOR 1254 (10 OR 30%), Method: PREINCUBATION) was “inactive; negative”.

Consider `COc1cc(Oc2ccc(Cl)cc2Cl)ccc1N`, for which the mutagenic call is “inactive; negative” (Test System: AMES SALMONELLA TYPHIMURIUM, Strain/Indicator: TA98, Metabolic Activation: S-9, Method: STANDARD PLATE); “active; positive” (Test System: AMES SALMONELLA TYPHIMURIUM, Strain/Indicator: TA100, Metabolic Activation: S-9, Method: STANDARD PLATE); “inactive; negative” (Test System: AMES SALMONELLA TYPHIMURIUM, Strain/Indicator: YG1021, Metabolic Activation: S-9, Method: STANDARD PLATE); “active; positive” (Test System: AMES SALMONELLA TYPHIMURIUM, Strain/Indicator: YG1024, Metabolic Activation: S-9, Method: STANDARD PLATE); “active; positive” (Test System: AMES SALMONELLA TYPHIMURIUM, Strain/Indicator: YG1026, Metabolic Activation: S-9, Method: STANDARD PLATE); “active; positive” (Test System: AMES SALMONELLA TYPHIMURIUM, Strain/Indicator: YG1029, Metabolic Activation: S-9, Method: STANDARD PLATE).

As to `O=[N+]([O-])c1cc2cc3ccc4cccc5ccc(c2o1)c3c45`, the mutagenic call by setting is: (Test System: AMES SALMONELLA TYPHIMURIUM, Strain/Indicator: TA98(NR), Metabolic Activation: NONE, Method: STANDARD PLATE) “active; positive”; (Test System: AMES SALMONELLA TYPHIMURIUM, Strain/Indicator: TA98(NR), Metabolic Activation: RAT, LIVER, S-9, AROCLOR 1254, Method: STANDARD PLATE) “active; positive”; under setting [3], “active; positive”; (Test System: AMES SALMONELLA TYPHIMURIUM, Strain/Indicator: TA98, Metabolic Activation: RAT, LIVER, S-9, AROCLOR 1254, Method: STANDARD PLATE) “active; positive”.

As to `Cc1ccc2ccccc2n1`, the mutagenic call is “active; positive” (Test System: AMES SALMONELLA TYPHIMURIUM, Strain/Indicator: TA100, Metabolic Activation: RAT, LIVER, S-9, AROCLOR 1254, Method: STANDARD PLATE); “active; positive” under setting [4]; “active; positive” (Test System: AMES SALMONELLA TYPHIMURIUM, Strain/Indicator: TA100, Metabolic Activation: RAT, LIVER, S-9, PHENOBARBITAL AND 5,6-NAPHTHOFLAVONE, Method: PREINCUBATION); “inactive; negative” under setting [5]; “inactive; negative” (Test System: UDS RODENT HEPATOCYTES, Strain/Indicator: THY INCORP (NON-S-PHASE), Metabolic Activation: NONE, Method: AUTORADIOGRAPHY).

Turning to `COc1cccc(C=O)c1O`, the mutagenic call was “inactive; negative” under setting [3]; “inactive; negative” (Test System: AMES SALMONELLA TYPHIMURIUM, Strain/Indicator: TA100, Metabolic Activation: NONE, Method: STANDARD PLATE); “inactive; negative” (Test System: E. COLI, Strain/Indicator: CM561 LEXA, Metabolic Activation: NONE, Method: STANDARD PLATE); “inactive; negative” (Test System: E. COLI, Strain/Indicator: CM611 UVRA/LEXA, Metabolic Activation: NONE, Method: STANDARD PLATE); “inactive; negative” (Test System: E. COLI, Strain/Indicator: WP2 UVRA, Metabolic Activation: NONE, Method: STANDARD PLATE).

For the molecule `CCC[CH2][Sn]([Cl])([Cl])[CH2]CCC`, the mutagenic call (Test System: AMES SALMONELLA TYPHIMURIUM, Strain/Indicator: TA98, Metabolic Activation: NONE, Method: SUSPENSION/PLATE) is “inactive; negative” and the mutagenic call (Test System: AMES SALMONELLA TYPHIMURIUM, Strain/Indicator: TA100, Metabolic Activation: NONE, Method: SUSPENSION/PLATE) was “inactive; negative”.

In the case of `C=CCSSSCC=C`, the mutagenic call (Test System: UDS RAT HEPATOCYTES, Strain/Indicator: THY INCORP, Metabolic Activation: NONE, Method: AUTORADIOGRAPHY) is “inactive; negative”.

On to `c1ccc(-c2ccccn2)nc1`, for which the mutagenic call was “active; positive” (Test System: AMES SALMONELLA TYPHIMURIUM, Strain/Indicator: TA97, Metabolic Activation: RAT, LIVER, S-9, PHENOBARBITAL, Method: STANDARD PLATE); “active; positive” (Test System: AMES SALMONELLA TYPHIMURIUM, Strain/Indicator: TA98, Metabolic Activation: RAT, LIVER, S-9, PHENOBARBITAL, Method: STANDARD PLATE); “active; positive” (Test System: AMES SALMONELLA TYPHIMURIUM, Strain/Indicator: TA100, Metabolic Activation: RAT, LIVER, S-9, PHENOBARBITAL, Method: STANDARD PLATE); “inactive; negative” (Test System: AMES SALMONELLA TYPHIMURIUM, Strain/Indicator: TA1535, Metabolic Activation: RAT, LIVER, S-9, PHENOBARBITAL, Method: STANDARD PLATE); “inactive; negative” (Test System: AMES SALMONELLA TYPHIMURIUM, Strain/Indicator: TA1537, Metabolic Activation: RAT, LIVER, S-9, PHENOBARBITAL, Method: STANDARD PLATE); “inactive; negative” (Test System: AMES SALMONELLA TYPHIMURIUM, Strain/Indicator: TA1538, Metabolic Activation: RAT, LIVER, S-9, PHENOBARBITAL, Method: STANDARD PLATE).

Take `Clc1ccc2ccccc2n1`: the mutagenic call under setting [1] was “inactive; negative”; the mutagenic call (Test System: AMES SALMONELLA TYPHIMURIUM, Strain/Indicator: TA98, Metabolic Activation: RAT, LIVER, S-9, Method: PREINCUBATION) was “inactive; negative”; the mutagenic call under setting [2] was “inactive; negative”; the mutagenic call under setting [4] was “inactive; negative”; the mutagenic call under setting [5] is “inactive; negative”.
